Results published in patent US20100087499A1, “PHARMACEUTICAL COMPOSITIONS AND METHODS OF USING TEMOZOLOMIDE AND MULTI-TARGETED KINASE INHIBITORS” (SCHERING CORPORATION, priority 2007, published 2010).

Test system: U87MG glioblastoma xenograft
Assay: U87MG glioblastoma xenograft tumor growth in nude mice
Format: in vivo
Procedure: The following human glioblastoma xenograft model may be employed to ascertain the efficacy of the formulations and methods described herein. Human glioblastoma cell U87MG are inoculated subcutaneously into female nude mice (age 4-6 wks). Xenograft tumor growth is followed by measuring the tumor size using a caliper. Once tumor size reaches about 100 mm^3 (average), mice carrying the xenograft tumors are grouped and treated with different doses of the combination of TMZ and a multi-targeted kinase inhibitor. Likewise, human glioblastoma cell U373 may be used to establish a xenograft model.
The combination of TMZ and a multi-targeted kinase inhibitor (e.g., sunitinib) for treating a cell proliferative disorder was examined using a human glioblastoma xenograft model. In particular, the glioblastoma model U87MG was used to evaluate the efficacy of multi-targeted kinase inhibitor sunitinib as a single agent compared to TMZ (Temozolomide, Temodar®), a chemotherapeutic drug clinically approved for treating brain tumor, as a single agent. In addition, this study looked at the efficacy of the combination of TMZ with sunitinib in comparison to the efficacy with either agent alone.
In brief, nude mice were inoculated with U87-MG glioblastoma cells and the resultant tumors treated with control, or various concentrations of TMZ, sunitinib, or a combination of both TMZ and sunitinib. More specifically, female nude mice (strain NU/NU), aged 6-8 weeks old were purchased from Charles River Laboratory. Five million glioblastoma U87-MG were mixed 1:1 (volume:volume) with Matrigel (Cat. # 354234, BD Biosciences) on ice and mixtures were inoculated subcutaneously to the flank of each mouse. Dosing was initiated on day 8 after inoculation when the tumor size was approximately 100 mm^3. TMZ was administered qd, ip for five consecutive days. Sunitinib was administered qd, po for 9-12 days consecutive days (until the end of the studies). The dosing volume was approximately 0.1 ml. Tumor size and body weight was measured two to three times per week.
There were 10 nude mice per dosing regimen.

Structure (SMILES) | inhibition of tumor growth (Day 17 post inoculation (day 9 post dosing initiation), TMZ alone 20 mpk qd ip x5 days, Table 1 / FIG. 2) [%] | inhibition of tumor growth (Day 17 post inoculation, TMZ alone 30 mpk (so in the source) qd ip x5 days, Table 1 / FIG. 2) [%] | inhibition of tumor growth (Day 17 post inoculation, TMZ alone 40 mpk (so in the source) qd ip x5 days, Table 1 / FIG. 2) [%] | inhibition of tumor growth (Day 20 post inoculation (day 12 post dosing initiation), TMZ alone 5 mpk qd ip x5 days, Table 2 / FIG. 4) [%] | inhibition of tumor growth (Day 20 post inoculation, TMZ alone 20 mpk qd ip x5 days, Table 2 / FIG. 4) [%] | inhibition of tumor growth (Day 17 post inoculation, sunitinib alone 40 mpk qd po, Table 1 / FIG. 2) [%] | inhibition of tumor growth (Day 17 post inoculation, sunitinib alone 80 mpk qd po, Table 1 / FIG. 2) [%] | inhibition of tumor growth (Day 20 post inoculation, sunitinib alone 40 mpk qd po, Table 2 / FIG. 4) [%] | inhibition of tumor growth (Day 20 post inoculation, sunitinib alone 80 mpk qd po, Table 2 / FIG. 4) [%]
Cn1nnc2c(C(N)=O)ncn2c1=O [TMZ, 3,4-dihydro-3-methyl-4-oxoimidazo[5,1-d]-as-tetazine-8-carboxamide] | 96 | 96 | 98 | 95 | 102 |  |  |  | 
CCN(CC)CCNC(=O)c1c(C)[nH]c(/C=C2\C(=O)Nc3ccc(F)cc32)c1C [sunitinib] |  |  |  |  |  | 56 | 82 | 76 | 83
